Reference: publication PMC9851200, “Multiparameter phenotypic screening for endogenous TFEB and TFE3 translocation identifies novel chemical series modulating lysosome function” (Autophagy, 2022)

What was measured:
SH-SY5Y cells [1] = conditions: PKIS2 primary screening; for DQ Intensity: DQ Red BSA intensity; for DQ Spot: DQ Red BSA spot count
Description: The PKIS2 Library was supplied by The Structural Genomics Consortium at the University of North Carolina at Chapel Hill.

SH-SY5Y cells [2] = test: AK (adenylate kinase) release ToxiLight cytotoxicity assay; conditions: PKIS2 primary screening
Protocol: Total cell lysis with 5 µL 5% Triton-X 100 (Sigma-Aldrich, T8787) is used as a positive control for the assay and toxicity is expressed as a percentage of luminescence under DMSO conditions.

endogenous TFEB = test: TFEB nuclear translocation, immunocytochemistry high-content imaging; type: cell-based; conditions: PKIS2 primary screening
endogenous TFE3 = test: TFE3 nuclear translocation, immunocytochemistry high-content imaging; type: cell-based; conditions: PKIS2 primary screening
SH-SY5Y cells [3] = test: Nuclear count from microscopy images (cellular growth and toxicity); conditions: PKIS2 primary screening

Row | SMILES | DQ Intensity (SH-SY5Y cells [1]) | DQ Spot (SH-SY5Y cells [1]) | AK (SH-SY5Y cells [2]) | TFEB % (endogenous TFEB) | TFE3 % (endogenous TFE3) | Nuclear Count (SH-SY5Y cells [3])
1 | COc1ccc(Nc2nccc(-c3cccc(NC(=O)c4cc5cc(F)ccc5[nH]4)c3)n2)cc1 [GSK1229782] | 93.16 | 110.99 | 91.24 | 2.71% | 14.29% | 89.95
2 | COc1ccc(CNC(=O)NC2CCN(c3ccnc(Nc4ccc(F)cc4)n3)C2)cc1 (stereo not drawn) [GSK1379706] | 67.21 | 81.58 | 89.40 | 2.94% | 11.64% | 119.74
3 | N#Cc1cccc(C(=O)NC2CCN(c3ccnc(Nc4ccc(F)cc4)n3)C2)c1 (stereo not drawn) [GSK1379708] | 97.27 | 112.33 | 99.36 | 6.02% | 11.35% | 107.86
4 | CC(=O)c1cccc(NC(=O)NC2CCN(c3ccnc(Nc4ccc(F)cc4)n3)C2)c1 (stereo not drawn) [GSK1379710] | 124.22 | 115.02 | 70.15 | 4.15% | 16.11% | 98.98
5 | COC(=O)C(NC(=O)NC1CCN(c2ccnc(Nc3ccc(F)cc3)n2)C1)c1ccccc1 (stereo not drawn) [GSK1379712] | 132.02 | 102.90 | 111.30 | 9.98% | 6.91% | 98.27
6 | CC(C(=O)NC1CCN(c2ccnc(Nc3ccc(F)cc3)n2)C1)c1ccc(Cl)cc1 (stereo not drawn) [GSK1379713] | 153.18 | 124.60 | 94.01 | 6.54% | 10.33% | 84.41
7 | COC(=O)C(Cc1ccccc1)NC(=O)NC1CCN(c2ccnc(Nc3ccc(F)cc3)n2)C1 (stereo not drawn) [GSK1379714] | 97.62 | 115.84 | 95.90 | 4.19% | 7.75% | 110.40
8 | CCCc1ccc(S(=O)(=O)NC2CCN(c3ccnc(Nc4ccc(F)cc4)n3)C2)cc1 (stereo not drawn) [GSK1379715] | 80.29 | 105.29 | 100.57 | 6.97% | 11.31% | 97.10
9 | O=C(NC1CCN(c2ccnc(Nc3ccc(F)cc3)n2)C1)c1cc2ccccc2s1 (stereo not drawn) [GSK1379716] | 72.95 | 96.75 | 79.19 | 2.96% | 24.94% | 86.00
10 | Cn1cncc1C(=O)NC1CCN(c2ccnc(Nc3ccc(F)cc3)n2)C1 (stereo not drawn) [GSK1379717] | 84.19 | 97.80 | 113.98 | 3.86% | 10.47% | 85.90
11 | Cc1ccc(C)c(NC(=O)NC2CCN(c3ccnc(Nc4ccc(F)cc4)n3)C2)c1 (stereo not drawn) [GSK1379720] | 115.10 | 109.75 | 98.80 | 6.06% | 10.49% | 92.38
12 | COc1cccc(NC(=O)NC2CCN(c3ccnc(Nc4ccc(F)cc4)n3)C2)c1 (stereo not drawn) [GSK1379721] | 94.47 | 102.23 | 103.41 | 3.00% | 13.36% | 112.40
13 | O=C(Nc1ccccc1F)NC1CCN(c2ccnc(Nc3ccc(F)cc3)n2)C1 (stereo not drawn) [GSK1379722] | 129.34 | 121.71 | 94.79 | 14.40% | 10.71% | 114.62
14 | COc1cccc(CNC(=O)NC2CCN(c3ccnc(Nc4ccc(F)cc4)n3)C2)c1 (stereo not drawn) [GSK1379723] | 104.41 | 106.33 | 98.00 | 8.63% | 22.56% | 83.60
15 | O=C(Nc1ccc2c(c1)OCO2)NC1CCN(c2ccnc(Nc3ccc(F)cc3)n2)C1 (stereo not drawn) [GSK1379724] | 90.09 | 99.32 | 104.22 | 3.86% | 7.39% | 89.10
16 | COC(=O)c1cccc(NC(=O)NC2CCN(c3ccnc(Nc4ccc(F)cc4)n3)C2)c1 (stereo not drawn) [GSK1379725] | 80.47 | 88.32 | 90.74 | 7.57% | 21.26% | 95.32
17 | COc1ccc(CNC(=O)NC2CCN(c3ccnc(Nc4ccc(OC)cc4)n3)C2)cc1 (stereo not drawn) [GSK1379727] | 79.60 | 81.20 | 96.08 | 4.74% | 11.01% | 118.16
